From paper PMC9421655, “Novel Antagonist of the Type 2 Lysophosphatidic Acid Receptor (LPA2), UCM-14216, Ameliorates Spinal Cord Injury in Mice” (Journal of Medicinal Chemistry, 2022)

Assays:
LPA2 [1] = molecular target: T1, LPA2 (Homo sapiens, UniProt Q9HBW0); assay: Free solution assay-compensated interferometric reader (FSA-CIR) binding, LPA2; conditions: receptor-containing nanovesicles, read-out: binding equilibrium constant (KD) at LPA2
T1 construct: expressed in transfected cells
Protocol: (§1) The assay was analyzed using a benchtop Compensated Interferometric Reader (CIR) that measured the light refractive index (ΔRI) change from binding-induced conformational and/or hydration changes produced by real time binding events in a sample (receptor containing nanovesicles plus compound) and compared to a nonbinding reference (RI matched buffer plus compound).[30] Finally, the interferometric signal from vector nanovesicles binding (nonspecific) to compound was subtracted from the LPA2,4–6 containing nanovesicles binding (total) to compound, to determine the specific binding interactions of the compounds to LPA2,4–6. The concentration-dependent change in RI (ΔRI) signal from the compounds to LPA2,4–6 or vector was fitted using the single site total vs nonspecific binding isotherm using GraphPad Prism. Specific KD values were determined by fitting the total minus nonspecific signal to a single site binding isotherm.
(§2) The detailed free solution assay method was described previously.[25],[26] All the compounds were dissolved in 100% DMSO, aliquoted, and frozen at −80 °C for 1 week. The compound dilution series was freshly prepared in 0.5% DMSO/PBS (pH 7.4) to keep the maximum compound in solution. […]

LPA2 mutant K22A = molecular target: T2, LPA2 mutant K22A (Homo sapiens, UniProt Q9HBW0, K19A); assay: Ca2+ mobilization in McA-RH7777 cells transfected with LPA2 point mutant K22A; type: cell-based; conditions: 54 at 10 μM, 10 μM LPA
T2 construct: host or cells: McA-RH7777 (CRL-1601, ATCC), transient, pcDNA3.1

[2] = In vivo levels of compound in plasma, spinal cord and brain (HPLC-MS); conditions: 25 mg/kg i.p.
Protocol: At 1, 2, and 4 h after drug administration (n = 3 for each time and sample), mice were sacrificed and their brains, spinal cords, and blood were obtained. The brain and spinal cord were immediately frozen and kept at −80 °C until analysis. Blood was allowed to clot at rt for 30 min and centrifuged at 4 °C for 10 min at 16 000g. Serum was transferred to a clean polypropylene tube and stored at −80 °C until analysis. For analysis, a volume of cold acetonitrile was added to the serum. The sample was incubated in an ice bath for 10 min and centrifuged at 4 °C for 10 min at 16 000g. The resulting organic layer was filtered through a PTFE filter (0.2 μm, 13 mm diameter, Fisher Scientific) and 20 μL of the sample analyzed by LC-MS/MS at the UCM’s Mass Spectrometry CAI. Separation was performed using a Phenomenex Gemini 5 μm C18 110A 150 × 2 mm column (run time 8 min; flow 0.5 mL/min; gradient: 0.5 min 10% Phase B, 2 min 60% Phase B, 4.5–6 min 100% Phase B, 7–8 min 10% Phase B; Phase A: water with formic acid 0.1%; Phase B: acetonitrile). […] The mass spectrometer ion optics were set in the multiple reaction monitoring mode and the transition selected for quantification was 432.90 > 215.10 (CE: −30 V).

LPA3 = molecular target: T3, LPA3 (Homo sapiens, UniProt Q9UBY5); assay: cell-based; conditions: maximum blockade of activation induced by 10 μM LPA (18:1) at 10 μM compound; N.E. = no effect at 10 μM
T3 sequence (Q9UBY5 1-353): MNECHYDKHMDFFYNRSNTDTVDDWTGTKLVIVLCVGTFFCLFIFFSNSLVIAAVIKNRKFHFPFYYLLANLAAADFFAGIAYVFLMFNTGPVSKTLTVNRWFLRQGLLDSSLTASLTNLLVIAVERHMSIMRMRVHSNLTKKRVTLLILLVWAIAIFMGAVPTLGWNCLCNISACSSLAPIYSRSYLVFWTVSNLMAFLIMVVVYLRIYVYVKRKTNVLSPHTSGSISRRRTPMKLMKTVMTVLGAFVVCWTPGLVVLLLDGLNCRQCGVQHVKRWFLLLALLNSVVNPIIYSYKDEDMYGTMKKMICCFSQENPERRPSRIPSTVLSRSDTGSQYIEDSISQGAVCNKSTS
Protocol: Cells stably expressing the corresponding LPA1–3 receptor were grown as described previously.[18] Changes in intracellular calcium levels were measured by using the fluorescent calcium sensitive dye Fluo-4 NW (Invitrogen). RH7777 cells or B103 cells were plated on poly-D-lysine or collagen coated, respectively, black-wall clear-bottom 96-well plates (Corning) at a density of 50 000 cells/well and cultured overnight. The culture medium was then replaced with 100 μL of Fluo-4 NW dye loading solution containing 2.5 μM of probenecid and incubated for 30 min at 37 °C followed by an additional 30 min at rt. […] Fluorescence changes were registered in a FluoStar Optima instrument (BMG Labtech) at 525 nm using an excitation wavelength of 494 nm. […] The data presented are from two to four independent experiments carried out in triplicate or quadruplicate. Dose–response curves were generated and IC50 values calculated by nonlinear regression analysis using Prism software version 5 (GraphPad Software Inc., San Diego, CA, USA).

[3] = system: spinal cord injury in C57Bl/6J mice; assay: Spinal cord contusion injury model, locomotor recovery (Basso Mouse Scale); type: in vivo; conditions: C57Bl/6 mice
Protocol: BMS is the gold standard test used for locomotor scoring after SCI in which two blinder observers score the mouse motor performance based on a nine-point scale.[28]
Adult female C57Bl/6J mice (10–12 weeks old) and LPA2 null mice were anesthetized by intramuscular injection with a mixture of ketamine and xylazine (90:10 mg/kg). A laminectomy was performed at the 11th thoracic vertebrae and the exposed spinal cord was contused using the Infinite Horizon Impactor device (Precision Scientific Instrumentation) using a force of 60 kdynes. Only mice showing a spinal cord tissue displacement ranging between 450 and 550 μm were selected.

LPA2 [4] = molecular target: T1, LPA2; assay: Ca2+ mobilization assay, agonist activity at LPA2; type: cell-based; conditions: 10 μM compound
Protocol: The agonist activity at LPA2 receptors was determined at 10 μM concentration for all final compounds as previously described.[18]
Figure S1. Representative snapshots showing the lack of significant agonist activity of selected compounds. (A) 1; (B) 13; (C) 54; and (D) Ki16425. (E) Graphs show the agonist activity induced […]
stably expressing LPA2 receptor were plated on collagen-coated black-wall clear-bottom 96-well plates (Corning) at a density of 50000 cells/well and cultured overnight. The culture medium was then replaced with Fluo-4 NW dye loading solution containing 2.5 µM of probenecid and incubated […]
for 30 minutes at 37 °C followed by an additional 30 minutes at rt. Fluorescence changes were registered in a FluoStar Optima instrument (BMG Labtech) at 525 nm using an excitation wavelength of 494 nm. Each well was monitored for 240 s. 20 µL of the test compound from a 6x stock solution in assay buffer were added after 120 s of starting the measurement. Ca2+ transient increase was quantified by calculating the difference between maximum and baseline values for each […]
Graphs shown are representative of two to three independent experiments.

LPA5 = LPA5 (Homo sapiens, UniProt Q9H1C0); conditions: in abstract
Protocol: as §1, §2

LPA4 = LPA4 (Homo sapiens, UniProt Q99677); conditions: in abstract
Protocol: as §1, §2

T1 sequence (Q9HBW0 whole entry, species assumed): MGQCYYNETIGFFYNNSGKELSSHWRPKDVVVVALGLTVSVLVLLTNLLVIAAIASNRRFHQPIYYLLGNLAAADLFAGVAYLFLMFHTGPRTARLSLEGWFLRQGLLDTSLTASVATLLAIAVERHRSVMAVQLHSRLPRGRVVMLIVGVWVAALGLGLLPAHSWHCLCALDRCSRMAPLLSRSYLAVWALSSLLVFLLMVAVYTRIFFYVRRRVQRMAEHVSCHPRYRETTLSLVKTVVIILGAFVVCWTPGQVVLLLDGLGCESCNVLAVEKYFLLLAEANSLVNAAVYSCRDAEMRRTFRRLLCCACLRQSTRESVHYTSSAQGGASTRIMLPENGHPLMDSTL
LPA5, sequence (Q9H1C0 whole entry, species assumed): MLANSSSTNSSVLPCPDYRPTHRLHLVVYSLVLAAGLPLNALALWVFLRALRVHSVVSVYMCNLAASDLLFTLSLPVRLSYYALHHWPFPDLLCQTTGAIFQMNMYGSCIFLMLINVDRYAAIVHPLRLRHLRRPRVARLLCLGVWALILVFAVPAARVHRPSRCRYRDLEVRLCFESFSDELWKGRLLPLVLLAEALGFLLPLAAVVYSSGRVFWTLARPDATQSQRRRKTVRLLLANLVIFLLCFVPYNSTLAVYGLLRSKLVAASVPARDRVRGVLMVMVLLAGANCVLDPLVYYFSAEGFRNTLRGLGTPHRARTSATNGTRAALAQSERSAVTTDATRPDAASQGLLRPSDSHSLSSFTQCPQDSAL
T2 sequence (Q9HBW0 whole entry K19A): as the sequence (Q9HBW0 whole entry, species assumed) above, with K19A counted along it
LPA4, sequence (Q99677 whole entry, species assumed): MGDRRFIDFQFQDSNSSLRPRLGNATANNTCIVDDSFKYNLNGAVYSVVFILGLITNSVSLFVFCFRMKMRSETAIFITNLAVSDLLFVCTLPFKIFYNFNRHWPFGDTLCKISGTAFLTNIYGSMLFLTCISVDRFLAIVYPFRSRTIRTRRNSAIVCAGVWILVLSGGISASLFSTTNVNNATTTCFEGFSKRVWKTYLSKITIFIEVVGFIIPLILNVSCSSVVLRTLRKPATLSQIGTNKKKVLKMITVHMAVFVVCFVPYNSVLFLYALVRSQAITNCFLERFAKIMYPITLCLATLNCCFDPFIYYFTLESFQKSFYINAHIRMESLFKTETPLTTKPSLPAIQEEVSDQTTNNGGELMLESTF

Which Kd (LPA2 [1]) does the source give for `Cc1[nH]nc(-c2ccc(OCc3nnn[nH]3)cc2O)c1Oc1ccc(Cl)cc1Cl` [Compound 54] here?
Its Kd is 1.3 nM.

And the “agonist/antagonist activity at LPA2 K22A mutant” value (LPA2 mutant K22A)?
The value was “no significant agonist nor antagonist activity”.

What about the “time of maximum levels in spinal cord and brain” value [2] of the same compound?
Its value is “one hour postadministration”.

And the “Emax (%) LPA3” value (LPA3)?
The value was “inactive and N.E”.

What about the BMS score ([3]; 25 mg/kg i.p. daily for 10 days from 1 h after lesion, day 50 postinjury, scale 0-9) of the same compound?
Its BMS score is 4.1 ± 0.3.

What about the “locomotor recovery after SCI (BMS)” value ([3]; 25 mg/kg i.p. daily for 10 days, significant from day 35 postinjury onward) of the same compound?
Its value is “significant improvement in locomotor recovery after SCI”.

And the “agonist activity at LPA2 receptor” value (LPA2 [4])?
The value was “lack”.

What about the “activity at LPA5 receptor” value (LPA5) of the same compound?
Its value is “inactive”.

What about the “activity at LPA4 receptor” value (LPA4) of the same compound?
The value was “inactive”.
